For five compounds, Ki and IC50 results are on record in ChEMBL document CHEMBL1135699, “Designing non-peptide peptidomimetics in the 21st century: inhibitors targeting conformational ensembles” (J Med Chem, 2002).

Non-standard residues stand in square brackets, D forms with d. Residues, ends and D or L forms follow the SMILES beside them. *: point of attachment. Sta = CC(C)C[C@H](N)[C@@H](O)CC(=O)O; NHIsopentyl = CC(C)CCN*; X1 = CC(C)CCOC(=O)*

The target in test [1] is Pepsin A (Homo sapiens, UniProt P0DJD9). Put plainly: Inhibition of pepsin.
For another test, the target named is T1, Rhizopuspepsin (Rhizopus microsporus var. chinensis, UniProt P06026).
T1 sequence (P06026 whole entry): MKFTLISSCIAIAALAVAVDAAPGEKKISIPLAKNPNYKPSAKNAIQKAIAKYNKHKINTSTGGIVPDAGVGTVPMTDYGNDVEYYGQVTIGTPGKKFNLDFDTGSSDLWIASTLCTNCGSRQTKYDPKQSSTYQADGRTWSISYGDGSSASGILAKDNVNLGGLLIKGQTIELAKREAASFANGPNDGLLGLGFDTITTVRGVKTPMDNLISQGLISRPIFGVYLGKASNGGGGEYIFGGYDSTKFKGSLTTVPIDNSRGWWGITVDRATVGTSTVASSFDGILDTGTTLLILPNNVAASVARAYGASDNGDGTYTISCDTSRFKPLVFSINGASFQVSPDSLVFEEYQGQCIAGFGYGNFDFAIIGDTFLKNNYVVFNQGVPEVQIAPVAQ
Briefly: Inhibitory concentration against Rhizopus chinensis pepsin. It counts as functional.

In test [2] the target is Pepsin A (Sus scrofa, UniProt P00791). Briefly: Inhibitory concentration against porcine pepsin.
Pepsin A (Sus scrofa, UniProt P00791), sequence (P00791 whole entry): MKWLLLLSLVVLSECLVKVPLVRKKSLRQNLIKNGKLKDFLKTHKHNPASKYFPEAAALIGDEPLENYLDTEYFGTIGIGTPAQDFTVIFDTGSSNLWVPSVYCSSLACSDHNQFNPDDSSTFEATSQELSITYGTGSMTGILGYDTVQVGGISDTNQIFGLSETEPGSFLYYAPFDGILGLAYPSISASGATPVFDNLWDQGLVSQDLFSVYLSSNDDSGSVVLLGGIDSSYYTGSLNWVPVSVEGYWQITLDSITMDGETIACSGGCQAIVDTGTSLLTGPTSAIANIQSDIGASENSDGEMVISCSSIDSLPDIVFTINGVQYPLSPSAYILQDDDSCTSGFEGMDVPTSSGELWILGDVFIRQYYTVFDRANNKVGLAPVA

Pepsin A (Homo sapiens, UniProt P0DJD9), sequence (P0DJD9 whole entry): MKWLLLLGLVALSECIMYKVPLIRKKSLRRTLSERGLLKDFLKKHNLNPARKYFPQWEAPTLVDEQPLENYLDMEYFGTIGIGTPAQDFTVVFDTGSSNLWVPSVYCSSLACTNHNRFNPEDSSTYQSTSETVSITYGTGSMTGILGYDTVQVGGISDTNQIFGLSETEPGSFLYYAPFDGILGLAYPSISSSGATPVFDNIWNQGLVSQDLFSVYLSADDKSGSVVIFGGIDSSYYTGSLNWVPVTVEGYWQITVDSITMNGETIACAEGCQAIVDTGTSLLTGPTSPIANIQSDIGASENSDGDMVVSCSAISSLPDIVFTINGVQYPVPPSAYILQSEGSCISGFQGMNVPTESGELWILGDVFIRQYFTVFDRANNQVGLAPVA

For the compound `CC(C)CCNC(=O)[C@H](C)NC(=O)C[C@@](C)(O)[C@H](CC(C)C)NC(=O)[C@@H](NC(=O)[C@@H](NC(=O)OCCC(C)C)C(C)C)C(C)C`, on Pepsin A [1], the Ki (usually a dissociation constant, usually derived from enzyme kinetics or from competition with a known ligand) came out at 1.5 nM.

`O=C(COc1ccc([C@H]2CCNC[C@@H]2OCc2ccc(Br)cc2)cc1)c1ccc2ccccc2c1`: the IC50 (usually the concentration needed to halve the response being measured) against Rhizopuspepsin worked out at 2000 nM.

Take `CC(C)CCNC(=O)[C@H](C)NC(=O)C[C@H](O)[C@H](CC(C)C)NC(=O)[C@@H](NC(=O)[C@@H](NC(=O)OCCC(C)C)C(C)C)C(C)C` (X1-VV[Sta]A-NHIsopentyl): affinity at Pepsin A [1] was put at a Ki of 0.1 nM.

At Pepsin A [1], `CC(C)CCNC(=O)[C@H](C)NC(=O)C[C@](C)(O)[C@H](CC(C)C)NC(=O)[C@@H](NC(=O)[C@@H](NC(=O)OCCC(C)C)C(C)C)C(C)C` yielded a Ki of 1200 nM.

For the compound `Brc1ccc(CO[C@H]2CNCC[C@@H]2c2ccccc2)cc1`, the IC50 against Pepsin A [2] amounted to 200 nM.
